Test results taken from ChEMBL document CHEMBL4311969, “Polygala tenuifolia-Acori tatarinowii herbal pair as an inspiration for substituted cinnamic α-asaronol esters: Design, synthesis, anticonvulsant activity, and inhibition of lactate dehydrogenase study” (Eur J Med Chem, 2019).
“And” between values parts separate entries of the source, which are not always exact repeats. Equal entries are not always repeated. The source made the active and inactive calls. No cut-off for these calls is given here.

How the values were obtained:
Mus musculus [1] = assay: Anticonvulsant activity in Kunming mouse assessed as reduction in Sc3-MP-induced tonic seizure rate at 300 mg/kg, ip administered 0.5 hrs before Sc3-MP stimulation relative to control; assay type: functional; design: scale not given: the % may be the effect or the level left
Mus musculus [2] = assay: Anticonvulsant activity in Kunming mouse assessed as MES-induced hind limb extension at 100 mg/kg, ip administered 0. 5 to 2 hrs before MES stimulation; assay type: functional, organism-based
[3] = Neurotoxicity against Kunming mouse assessed as time remained in rod at 100 mg/kg, ip administered 0.5 to 2 hrs by rotarod test; assay type: toxicity, organism-based; conditions: in vivo
Mus musculus [4] = assay: Anticonvulsant activity in Kunming mouse assessed as MES-induced hind limb extension at 50 mg/kg, ip administered 0.5 to 4 hrs before MES stimulation relative to control; assay type: functional
Mus musculus [5] = assay: Anticonvulsant activity in Kunming mouse assessed as reduction in ScPTZ-induced seizure at 300 mg/kg, ip administered 0.25 to 2 hrs before ScPTZ stimulation relative to control; assay type: functional; design: scale not given: the % may be the effect or the level left
Mus musculus [6] = assay: Anticonvulsant activity in Kunming mouse assessed as reduction in ScPTZ-induced seizure at 100 mg/kg, ip administered 0.25 to 2 hrs before ScPTZ stimulation relative to control; assay type: functional; design: scale not given: the % may be the effect or the level left
Mus musculus [7] = assay: Anticonvulsant activity in Kunming mouse assessed as reduction in ScPTZ-induced seizure at 100 mg/kg, ip administered 0.25 and 1 hrs before ScPTZ stimulation relative to control; assay type: functional; design: scale not given: the % may be the effect or the level left
Mus musculus [8] = assay: Anticonvulsant activity in Kunming mouse assessed as reduction in ScPTZ-induced clonic seizure at 300 mg/kg, ip administered 0.5 hrs before ScPTZ stimulation relative to control; assay type: functional; design: scale not given: the % may be the effect or the level left
Mus musculus [9] = assay: Anticonvulsant activity in Kunming mouse assessed as reduction in ScPTZ-induced clonic seizure at 100 mg/kg, ip administered 0.5 hrs before ScPTZ stimulation relative to control; assay type: functional; design: scale not given: the % may be the effect or the level left
Mus musculus [10] = assay: Anticonvulsant activity in Kunming mouse assessed as reduction in ScPTZ-induced tonic seizure rate at 300 mg/kg, ip administered 0.5 hrs before ScPTZ stimulation relative to control; assay type: functional; design: scale not given: the % may be the effect or the level left
Mus musculus [11] = assay: Anticonvulsant activity in Kunming mouse assessed as reduction in Sc3-MP-induced seizure at 300 mg/kg, ip administered 0.25 and 1 hrs before Sc3-MP stimulation relative to control; assay type: functional, organism-based
Mus musculus [12] = assay: Anticonvulsant activity in Kunming mouse assessed as reduction in Sc3-MP-induced seizure at 300 mg/kg, ip administered 0.5 hrs before Sc3-MP stimulation relative to control; assay type: functional; design: scale not given: the % may be the effect or the level left
Mus musculus [13] = assay: Anticonvulsant activity in ip dosed Kunming mouse assessed as MES-induced hind limb extension administered 0.5 hrs before MES stimulation; assay type: functional
Mus musculus [14] = assay: Anticonvulsant activity in ip dosed Kunming mouse assessed as reduction in ScPTZ-induced seizure administered 0.5 hrs before ScPTZ stimulation; assay type: functional
Mus musculus [15] = assay: Anticonvulsant activity in Kunming mouse assessed as reduction in Sc3-MP-induced seizure ip dosed measured at 0.5 hrs before Sc3-MP stimulation; assay type: functional
Mus musculus [16] = assay: […] activity in ip dosed Kunming mouse assessed as reduction in formalin-induced paw licking administered 0.5 hrs before formalin stimulation; assay type: functional
[17] = Neurotoxicity against ip dosed Kunming mouse assessed as time remained in rod measured at 0.5 hrs by rotarod test; assay type: toxicity, organism-based; conditions: in vivo
[18] = Protective index, ratio of TD50 for neurotoxicity against ip dosed Kunming mouse assessed as time remained in rod measured at 0.5 hrs by rotarod test to ED50 for anticonvulsant activity in ip dosed Kunming mouse assessed as MES-induced hind limb extension administered 0.5 hrs; assay type: toxicity, organism-based; conditions: in vivo, read-out: PI
[19] = (§1) Protective index, ratio of TD50 for neurotoxicity against ip dosed Kunming mouse assessed as time remained in rod measured at 0.5 hrs by rotarod test to ED50 for anticonvulsant activity in ip dosed Kunming mouse assessed as reduction in Sc3-MP-induced seizure administered 0.5 hrs before Sc3-MP stimulation; assay type: toxicity, organism-based; conditions: in vivo, read-out: PI
[20] = as §1, with “formalin-induced paw licking” for “Sc3-MP-induced seizure”, “formalin” for “Sc3-MP”; assay type: toxicity, organism-based; conditions: in vivo, read-out: PI
Homo sapiens [21] = species on record: Homo sapiens; assay: Inhibition of human LDH1 at 0.5 mM using sodium pyruvate as substrate by UV-VIS spectrophotometry method relative to control
Homo sapiens [22] = species on record: Homo sapiens; assay: Inhibition of human LDH1 at 0.5 mM using sodium pyruvate as substrate measured for 60 sec for every 5 mins by LC/MS-MS analysis
Homo sapiens [23] = species on record: Homo sapiens; assay: Inhibition of human LDH5 at 0.5 mM using sodium pyruvate as substrate measured for 60 sec for every 5 mins by LC/MS-MS analysis
[24] = Clearance in Sprague-Dawley rat at 20 mg/kg, iv measured upto 480 mins by LC-MS/MS analysis; assay type: ADME, organism-based; conditions: in vivo
[25] = Volume of distribution at steady state in Sprague-Dawley rat at 20 mg/kg, iv measured upto 480 mins by LC-MS/MS analysis; assay type: ADME, organism-based; conditions: in vivo, read-out: Vdss
[26] = Cmax in Sprague-Dawley rat at 20 mg/kg, iv measured upto 480 mins by LC-MS/MS analysis; assay type: ADME, organism-based; design: dose 20 mg/kg, route intravenous; conditions: in vivo
[27] = Tmax in Sprague-Dawley rat at 20 mg/kg, po measured upto 480 mins by LC-MS/MS analysis; assay type: ADME, organism-based; conditions: in vivo
[28] = Clearance in Sprague-Dawley rat at 20 mg/kg, po measured upto 480 mins by LC-MS/MS analysis; assay type: ADME, organism-based; conditions: in vivo
[29] = Volume of distribution at steady state in Sprague-Dawley rat at 20 mg/kg, po measured upto 480 mins by LC-MS/MS analysis; assay type: ADME, organism-based; conditions: in vivo, 8 h
[30] = AUC in Sprague-Dawley rat at 20 mg/kg, po measured upto 480 mins by LC-MS/MS analysis; assay type: ADME, organism-based; design: time < 8 hr, dose 20 mg/kg, route oral; conditions: in vivo
[31] = Half life in Sprague-Dawley rat at 50 mg/kg, po measured upto 480 mins by LC-MS/MS analysis; assay type: ADME, organism-based; conditions: in vivo
[32] = Tmax in Sprague-Dawley rat at 50 mg/kg, po measured upto 480 mins by LC-MS/MS analysis; assay type: ADME, organism-based; conditions: in vivo
[33] = Clearance in Sprague-Dawley rat at 50 mg/kg, po measured upto 480 mins by LC-MS/MS analysis; assay type: ADME, organism-based; conditions: in vivo
[34] = Volume of distribution at steady state in Sprague-Dawley rat at 50 mg/kg, po measured upto 480 mins by LC-MS/MS analysis; assay type: ADME, organism-based; conditions: in vivo, 8 h
[35] = Half life in Sprague-Dawley rat at 100 mg/kg, po measured upto 480 mins by LC-MS/MS analysis; assay type: ADME, organism-based; conditions: in vivo
[36] = Tmax in Sprague-Dawley rat at 100 mg/kg, po measured upto 480 mins by LC-MS/MS analysis; assay type: ADME, organism-based; conditions: in vivo
[37] = Clearance in Sprague-Dawley rat at 100 mg/kg, po measured upto 480 mins by LC-MS/MS analysis; assay type: ADME, organism-based; conditions: in vivo
[38] = Cmax in Sprague-Dawley rat at 100 mg/kg, po measured upto 480 mins by LC-MS/MS analysis; assay type: ADME, organism-based; design: dose 100 mg/kg, route oral; conditions: in vivo
[39] = AUC in Sprague-Dawley rat at 100 mg/kg, po measured upto 480 mins by LC-MS/MS analysis; assay type: ADME, organism-based; design: dose 100 mg/kg, time < 8 hr, route oral; conditions: in vivo
[40] = Oral bioavailability in Sprague-Dawley rat at 100 mg/kg measured upto 480 mins by LC-MS/MS analysis; assay type: ADME, organism-based; conditions: in vivo
Mus musculus [41] = assay: Anticonvulsant activity in Kunming mouse assessed as MES-induced hind limb extension at 100 mg/kg, ip administered 0. 5 to 4 hrs before MES stimulation relative to control; assay type: functional

COc1cc(OC)c(OC)cc1/C=C/COC(=O)/C=C/c1c(OC)cc(OC)c(OC)c1OC
Activity (Mus musculus [1]): 50%
Activity (Mus musculus [2]): Active
Activity [3]: Non-Toxic
Activity (Mus musculus [4]): 50%
Activity (Mus musculus [5]): 50%
Activity (Mus musculus [6]): 25%
Activity (Mus musculus [7]): 75%
Activity (Mus musculus [8]): 100%
Activity (Mus musculus [9]): 100%
Activity (Mus musculus [10]): 25%
Activity (Mus musculus [11]): Active
Activity (Mus musculus [12]): 50%
ED50 (Mus musculus [13]): 71.4 µmol/kg and 33.9 mg/kg
ED50 (Mus musculus [14]): 154 mg/kg and 326 µmol/kg
ED50 (Mus musculus [15]): 203 mg/kg and 428 µmol/kg
ED50 (Mus musculus [16]): 46.3 mg/kg and 97.6 µmol/kg
TD50 at 0.5 h [17]: 1970 µmol/kg and 936 mg/kg
selectivity ratio at 0.5 h [18]: 27.7
selectivity ratio at 0.5 h [19]: 4.6
selectivity ratio at 0.5 h [20]: 21.6
inhibition (Homo sapiens [21]): 21%
inhibition (Homo sapiens [22]): 21%
inhibition (Homo sapiens [23]): 27%
clearance [24]: 140 mL/min/kg
Vd [25]: 2.14 L/kg
Cmax [26]: 6480 ng/mL
Tmax [27]: 37.1 min
CL/F [28]: 380 mL/min/kg
Vdss [29]: 9.86 L/kg
AUC at 8 h [30]: 1300 ng·h/mL
half-life [31]: 59.2 min
Tmax [32]: 38.7 min
CL/F [33]: 450 mL/min/kg
Vdss [34]: 10.17 L/kg
half-life [35]: 58.5 min
Tmax [36]: 38.8 min
CL/F [37]: 520 mL/min/kg
Cmax [38]: 3980 ng/mL
AUC at 8 h [39]: 5480 ng·h/mL
bioavailability [40]: 36.5%
Activity (Mus musculus [41]): 25 - 100%

COc1cc(OC)c(OC)cc1/C=C/COC(=O)/C=C/c1cc(OC)c(OC)c(OC)c1OC
Activity (Mus musculus [1]): 50%
Activity (Mus musculus [2]): Active
Activity [3]: Non-Toxic
Activity (Mus musculus [4]): 50%
Activity (Mus musculus [5]): 50%
Activity (Mus musculus [6]): 25%
Activity (Mus musculus [7]): 75%
Activity (Mus musculus [8]): 100%
Activity (Mus musculus [9]): 100%
Activity (Mus musculus [10]): 0%
Activity (Mus musculus [11]): Active
Activity (Mus musculus [12]): 50%
ED50 (Mus musculus [13]): 65.1 µmol/kg and 30.9 mg/kg
ED50 (Mus musculus [14]): 155 mg/kg and 327 µmol/kg
ED50 (Mus musculus [15]): > 200 mg/kg and > 422 µmol/kg
ED50 (Mus musculus [16]): 42.2 mg/kg and 89 µmol/kg
TD50 at 0.5 h [17]: > 2110 µmol/kg and > 1000 mg/kg
selectivity ratio at 0.5 h [18]: > 32.4
selectivity ratio at 0.5 h [19]: > 5.3
selectivity ratio at 0.5 h [20]: 23.7
inhibition (Homo sapiens [21]): 18%
inhibition (Homo sapiens [22]): 18%
inhibition (Homo sapiens [23]): 15%
clearance [24]: 160 mL/min/kg
Vd [25]: 1.98 L/kg
Cmax [26]: 6220 ng/mL
Tmax [27]: 35.2 min
CL/F [28]: 390 mL/min/kg
Vdss [29]: 8.94 L/kg
AUC at 8 h [30]: 1210 ng·h/mL
half-life [31]: 58.5 min
Tmax [32]: 35.6 min
CL/F [33]: 480 mL/min/kg
Vdss [34]: 9.26 L/kg
half-life [35]: 57 min
Tmax [36]: 36.2 min
CL/F [37]: 560 mL/min/kg
Cmax [38]: 3770 ng/mL
AUC at 8 h [39]: 5110 ng·h/mL
bioavailability [40]: 34.8%
Activity (Mus musculus [41]): 25 - 100%
